Reference: patent US10618901B2 (GlaxoSmithKline Intellectual Property Development Limited, priority 2014, dated 2020)

target: T1, LRRK2 Ser935 phosphorylation in SH-SY5Y cells over-expressing recombinant full length LRRK2 (Homo sapiens, UniProt Q5S007); experiment: Recombinant cellular LRRK2 AlphaScreen assay; assay type: cell-based; details: LRRK2 Ser935 phosphorylation, 60 minutes, read-out: recombinant cellcular LRRK2 alphaScreen assay (pIC50) (converted)
T1 construct: A BacMam virus expressing full length recombinant LRRK2 was purchased from Invitrogen; host or cells: SH-SY5Y (BacMam transduction)
From the text: Recombinant Cellular LRRK2 AlphaScreen Assay
To determine the activity of compounds against LRRK2 kinase activity in cells, the observed LRRK2 kinase-dependent modulation of LRRK2 Ser 935 phosphorylation (Dzamko et al., 2010, Biochem. J. 430: 405-413) was utilized to develop a quantitative 384 well plate-based immunoassay of LRRK2 Ser935 phosphorylation in the human neuroblastoma cell line SH-SY5Y, engineered to over-express recombinant full length LRRK2 protein.
A BacMam virus expressing full length recombinant LRRK2 was purchased from Invitrogen and amplified by inoculation of SF-9 cells at MOI 0.3 for 4-5 days in Sf-900 III SFM medium supplemented with 3% fetal bovine serum. Infected cell cultures were then centrifuged at 2000 g for 20 minutes, viral supernatant titer determined by anti-gp64 plaque assay and stored at 4° C.
Affinity-purified anti-phospho LRRK2 Ser935 sheep polyclonal antibody (Dzamko et al., 2010, Biochem. J. 430: 405-413) was biotinylated by standard methods (PerkinElmer). Anti-LRRK2 rabbit polyclonal antibody was purchased from Novus Biologicals. AlphaScreen Protein A IgG Kit (including acceptor and donor beads) was purchased from Perkin Elmer.
SH-SY5Y cells were grown in DMEM/F12 medium with 10% dialysed fetal bovine serum and harvested by treatment with 0.5% trypsin-EDTA for 5 minutes at 37° C. followed by centrifugation at 1000 rpm for 4 minutes. The cell pellet was resuspended in Opti-MEM reduced serum media (Invitrogen) at 200,000 cells/ml and mixed with the BacMam LRRK2 virus at M01=50. 50 μl cell solutions were then dispensed to each well of a 384-well plate and incubated at 37° C., 5% CO2 for 24 hours.
Serial dilutions of test compounds were prepared in Opti-MEM reduced serum media (Invitrogen) and 5.6 ul transferred from compound plate to cell assay plate to achieve a top final assay concentration of 10 uM. DMSO was used in certain wells as controls. Cells were incubated at 37° C., 5% CO2 for 60 minutes. The medium was then removed and cells lysed by addition of 20 ul cell lysis buffer (Cell Signaling Technology) and incubation at 4° C. for 20 minutes. 10 ul of antibody/acceptor bead mix [(1/1000 biotinylated-pS935 LRRK2 antibody, 1/1000 total-LRRK2 antibody, 1/100 Acceptor beads in AlphaScreen detection buffer (25 mM Hepes (pH 7.4), 0.5% Triton X-100, 1 mg/ml Dextran 500 and 0.1% BSA)] was then added to each well and plates incubated for 2 hours at ambient temperature in the dark. 10 μl of donor beads solution (1/33.3 donor beads in AlphaScreen detection buffer) was then added to each well. Following incubation for a further 2 hours at ambient temperature in the dark, plates were read on an EnVision™ plate reader at emission 520-620 nm with excitation 680 nm. Dose response curve data was based on sigmoidal dose-response model.

T1 sequence (Q5S007 whole entry): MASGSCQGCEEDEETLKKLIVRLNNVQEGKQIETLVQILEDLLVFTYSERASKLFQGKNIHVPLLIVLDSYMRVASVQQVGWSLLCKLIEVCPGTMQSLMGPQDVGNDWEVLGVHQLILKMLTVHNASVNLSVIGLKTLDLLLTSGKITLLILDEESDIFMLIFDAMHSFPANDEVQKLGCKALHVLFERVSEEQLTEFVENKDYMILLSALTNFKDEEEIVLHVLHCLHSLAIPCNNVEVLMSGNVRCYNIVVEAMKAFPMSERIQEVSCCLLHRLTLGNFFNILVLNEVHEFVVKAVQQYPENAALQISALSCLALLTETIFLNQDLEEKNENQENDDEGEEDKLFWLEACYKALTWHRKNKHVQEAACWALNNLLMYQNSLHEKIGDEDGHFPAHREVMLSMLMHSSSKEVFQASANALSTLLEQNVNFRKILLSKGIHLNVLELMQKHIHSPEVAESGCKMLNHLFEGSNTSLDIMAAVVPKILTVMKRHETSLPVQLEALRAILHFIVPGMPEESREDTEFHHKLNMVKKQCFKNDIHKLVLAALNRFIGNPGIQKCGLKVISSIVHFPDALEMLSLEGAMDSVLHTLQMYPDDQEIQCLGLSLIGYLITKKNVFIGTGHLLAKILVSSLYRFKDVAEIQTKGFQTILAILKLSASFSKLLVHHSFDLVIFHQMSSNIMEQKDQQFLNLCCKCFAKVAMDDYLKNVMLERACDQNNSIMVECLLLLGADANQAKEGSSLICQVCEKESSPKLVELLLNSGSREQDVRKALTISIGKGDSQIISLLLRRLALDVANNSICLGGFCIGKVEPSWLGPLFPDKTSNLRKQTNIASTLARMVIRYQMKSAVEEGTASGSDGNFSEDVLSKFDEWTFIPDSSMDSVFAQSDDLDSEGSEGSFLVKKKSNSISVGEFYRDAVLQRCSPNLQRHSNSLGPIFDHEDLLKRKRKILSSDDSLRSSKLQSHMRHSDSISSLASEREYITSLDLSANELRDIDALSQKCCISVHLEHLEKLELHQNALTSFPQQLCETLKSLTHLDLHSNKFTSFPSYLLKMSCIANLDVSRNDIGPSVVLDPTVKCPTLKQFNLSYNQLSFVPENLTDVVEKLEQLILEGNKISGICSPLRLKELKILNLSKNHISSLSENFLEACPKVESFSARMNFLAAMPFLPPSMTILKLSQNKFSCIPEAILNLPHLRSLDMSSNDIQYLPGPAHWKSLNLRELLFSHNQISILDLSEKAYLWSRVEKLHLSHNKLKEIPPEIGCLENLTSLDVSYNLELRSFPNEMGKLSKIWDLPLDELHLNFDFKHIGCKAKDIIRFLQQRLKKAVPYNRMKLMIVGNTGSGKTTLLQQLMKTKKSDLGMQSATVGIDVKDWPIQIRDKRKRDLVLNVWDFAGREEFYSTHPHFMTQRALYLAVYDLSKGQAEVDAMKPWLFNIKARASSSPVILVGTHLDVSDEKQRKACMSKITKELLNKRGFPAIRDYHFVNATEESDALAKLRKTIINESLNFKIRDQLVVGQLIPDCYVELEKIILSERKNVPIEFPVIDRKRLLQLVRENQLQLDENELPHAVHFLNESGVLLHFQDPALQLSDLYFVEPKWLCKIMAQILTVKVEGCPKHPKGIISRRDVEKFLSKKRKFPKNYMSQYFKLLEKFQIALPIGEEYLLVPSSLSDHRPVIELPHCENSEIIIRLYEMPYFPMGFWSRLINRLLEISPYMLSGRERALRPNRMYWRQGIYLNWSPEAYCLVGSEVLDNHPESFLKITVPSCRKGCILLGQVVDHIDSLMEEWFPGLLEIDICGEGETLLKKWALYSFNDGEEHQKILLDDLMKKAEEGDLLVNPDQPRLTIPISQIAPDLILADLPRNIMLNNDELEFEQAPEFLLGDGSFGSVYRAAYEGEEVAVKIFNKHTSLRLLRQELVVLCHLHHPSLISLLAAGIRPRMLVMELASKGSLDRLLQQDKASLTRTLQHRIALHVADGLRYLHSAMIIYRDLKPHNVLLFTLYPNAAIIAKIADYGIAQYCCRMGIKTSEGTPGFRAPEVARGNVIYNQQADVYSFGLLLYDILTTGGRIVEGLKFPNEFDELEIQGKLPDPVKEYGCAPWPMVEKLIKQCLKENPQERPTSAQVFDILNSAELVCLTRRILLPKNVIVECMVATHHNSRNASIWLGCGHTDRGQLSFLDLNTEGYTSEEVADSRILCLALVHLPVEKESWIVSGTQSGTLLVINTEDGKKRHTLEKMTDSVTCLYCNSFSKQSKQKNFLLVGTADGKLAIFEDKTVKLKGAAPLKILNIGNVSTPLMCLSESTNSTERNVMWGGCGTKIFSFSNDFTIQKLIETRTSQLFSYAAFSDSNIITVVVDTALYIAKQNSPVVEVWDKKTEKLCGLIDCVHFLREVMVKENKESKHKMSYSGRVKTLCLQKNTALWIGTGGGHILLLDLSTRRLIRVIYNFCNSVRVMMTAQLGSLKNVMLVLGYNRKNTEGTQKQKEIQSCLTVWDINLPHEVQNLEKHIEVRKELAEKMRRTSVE

IC50, 31.6 nM:
CCOc1nc(Nc2cnn([C@H]3C[C@H](F)CN(C4COC4)C3)c2Cl)nc2[nH]ccc12 [Example E150, N-(5-chloro-1-((3S,5S)-5-fluoro-1-(oxetan-3-yl)piperidin-3-yl)-1H-pyrazol-4-yl)-4-ethoxy-7H-pyrrolo[2,3-d]pyrimidin-2-amine]

same assay, conditions: read-out: pIC50 in the recombinant cellular LRRK2 alphaScreen assay (converted)

IC50, ≤ 100 nM:
CCOc1nc(Nc2cnn(CCN3CCOC[C@@H]3C)c2C)nc2[nH]ccc12 [Example E82, (S)-4-ethoxy-N-(5-methyl-1-(2-(3-methylmorpholino)ethyl)-1H-pyrazol-4-yl)-7H-pyrrolo [2,3-d]pyrimidin-2-amine]
CCOc1nc(Nc2cnn(CCN3CCO[C@H](C)C3)c2C)nc2[nH]ccc12 [Example E83, (R)-4-ethoxy-N-(5-methyl-1-(2-(2-methylmorpholino)ethyl)-1H-pyrazol-4-yl)-7H-pyrrolo [2,3-d]pyrimidin-2-amine]
CCOc1nc(Nc2cnn(CCN3CCO[C@@H](C)C3)c2C)nc2[nH]ccc12 [Example E84, (S)-4-ethoxy-N-(5-methyl-1-(2-(2-methylmorpholino)ethyl)-1H-pyrazol-4-yl)-7H-pyrrolo [2,3-d]pyrimidin-2-amine]
CCOc1nc(Nc2cnn([C@@H]3CCN(CC(F)F)C3)c2C)nc2[nH]ccc12 [Example E85, (R)—N-(1-(1-(2,2-difluoroethyl)pyrrolidin-3-yl)-5-methyl-1H-pyrazol-4-yl)-4-ethoxy-7H-pyrrolo[2,3-d]pyrimidin-2-amine]
CCOc1nc(Nc2cnn([C@H]3CCN(CC(F)F)C3)c2C)nc2[nH]ccc12 [Example E87, (S)—N-(1-(1-(2,2-difluoroethyl)pyrrolidin-3-yl)-5-methyl-1H-pyrazol-4-yl)-4-ethoxy-7H-pyrrolo[2,3-d]pyrimidin-2-amine]
CCOc1nc(Nc2cnn(CC(C)(C)N3CCOCC3)c2C)nc2[nH]ccc12 [Example E88, 4-ethoxy-N-(5-methyl-1-(2-methyl-2-morpholinopropyl)-1H-pyrazol-4-yl)-7H-pyrrolo[2,3-d]pyrimidin-2-amine]
CCOc1nc(Nc2cnn(C3CC(C)(O)C3)c2C)nc2[nH]ccc12 (centres unmarked) [Example E93, 3-(4-((4-ethoxy-7H-pyrrolo[2,3-d]pyrimidin-2-yl)amino)-5-methyl-1H-pyrazol-1-yl)-1-methylcyclobutanol]
CCOc1nc(Nc2cnn([C@@H]3CCN[C@@H](C(F)F)C3)c2C)nc2[nH]ccc12 [Example E94, N-(1-((2R,4R)-2-(difluoromethyl)piperidin-4-yl)-5-methyl-1H-pyrazol-4-yl)-4-ethoxy-7H-pyrrolo[2,3-d]pyrimidin-2-amine]
CCOc1nc(Nc2cnn([C@H]3CCN[C@@H](C(F)F)C3)c2C)nc2[nH]ccc12 [Example E95, N-(1-((2R,4S)-2-(difluoromethyl)piperidin-4-yl)-5-methyl-1H-pyrazol-4-yl)-4-ethoxy-7H-pyrrolo[2,3-d]pyrimidin-2-amine]
CCOc1nc(Nc2cnn(C(C)(C)C#N)c2C)nc2[nH]ccc12 [Example E96, 2-(4-((4-ethoxy-7H-pyrrolo[2,3-d]pyrimidin-2-yl)amino)-5-methyl-1H-pyrazol-1-yl)-2-methylpropanenitrile]
CCOc1nc(Nc2cnn([C@H]3CCN(C4COC4)C[C@@H]3F)c2C)nc2[nH]ccc12 [Example E97, 4-ethoxy-N-(1-((3S,4S)-3-fluoro-1-(oxetan-3-yl)piperidin-4-yl)-5-methyl-1H-pyrazol-4-yl)-7H-pyrrolo[2,3-d]pyrimidin-2-amine]
CCOc1nc(Nc2cnn([C@@H]3CCN(C4COC4)C[C@H]3F)c2C)nc2[nH]ccc12 [Example E98, 4-ethoxy-N-(1-((3R,4R)-3-fluoro-1-(oxetan-3-yl)piperidin-4-yl)-5-methyl-1H-pyrazol-4-yl)-7H-pyrrolo[2,3-d]pyrimidin-2-amine]
CCOc1nc(Nc2cnn(CCN3CCO[C@@H](C(F)F)C3)c2C)nc2[nH]ccc12 [Example E99, (R)—N-(1-(2-(2-(difluoromethyl)morpholino)ethyl)-5-methyl-1H-pyrazol-4-yl)-4-ethoxy-7H-pyrrolo[2,3-d]pyrimidin-2-amine]
CCOc1nc(Nc2cnn([C@@H]3CCCN(C4COC4)C3)c2C)nc2[nH]ccc12 [Example E135, (R)-4-ethoxy-N-(5-methyl-1-(1-(oxetan-3-yl)piperidin-3-yl)-1H-pyrazol-4-yl)-7H-pyrrolo [2,3-d]pyrimidin-2-amine]
CCOc1nc(Nc2cnn([C@H]3CCCN(C4COC4)C3)c2C)nc2[nH]ccc12 [Example E136, (S)-4-ethoxy-N-(5-methyl-1-(1-(oxetan-3-yl)piperidin-3-yl)-1H-pyrazol-4-yl)-7H-pyrrolo[2,3-d]pyrimidin-2-amine]
CCOc1nc(Nc2cnn(C3(C)CC(N4CCOCC4)C3)c2C)nc2[nH]ccc12 (centres unmarked) [Example E137, 4-ethoxy-N-(5-methyl-1-(1-methyl-3-morpholinocyclobutyl)-1H-pyrazol-4-yl)-7H-pyrrolo[2,3-d]pyrimidin-2-amine]
CCOc1nc(Nc2cnn(C3CCC(N4CCOCC4)CC3)c2Cl)nc2[nH]ccc12 (centres unmarked) [Example E149, N-(5-chloro-1-(4-morpholinocyclohexyl)-1H-pyrazol-4-yl)-4-ethoxy-7H-pyrrolo[2,3-d] pyrimidin-2-amine]
CCOc1nc(Nc2cnn([C@H]3C[C@H](F)CN(C4COC4)C3)c2Cl)nc2[nH]ccc12 [Example E150, N-(5-chloro-1-((3S,5S)-5-fluoro-1-(oxetan-3-yl)piperidin-3-yl)-1H-pyrazol-4-yl)-4-ethoxy-7H-pyrrolo[2,3-d]pyrimidin-2-amine]
CCOc1nc(Nc2cnn([C@@H]3C[C@H](F)CN(C4COC4)C3)c2Cl)nc2[nH]ccc12 [Example E151, N-(5-chloro-1-((3R,5S)-5-fluoro-1-(oxetan-3-yl)piperidin-3-yl)-1H-pyrazol-4-yl)-4-ethoxy-7H-pyrrolo[2,3-d]pyrimidin-2-amine]
